Assay results reported in patent US20250235566A1, “[…]-[…] LABELING PRECURSORS AND RA[…] THEREFROM” (Medianezia GmbH, priority 2021, published 2025).

Experiments:
Type in all cases: biochemical
[1] = target: T1, PREP (prolyl endopeptidase) (Homo sapiens, UniProt P48147); test: PREP IC50 measurement with N-succinyl-Gly-Pro-AMC substrate; details: N-succinyl-Gly-Pro-AMC 250 μM, pH=7.4
T1 construct: made in house
T1 sequence (P48147 1-710): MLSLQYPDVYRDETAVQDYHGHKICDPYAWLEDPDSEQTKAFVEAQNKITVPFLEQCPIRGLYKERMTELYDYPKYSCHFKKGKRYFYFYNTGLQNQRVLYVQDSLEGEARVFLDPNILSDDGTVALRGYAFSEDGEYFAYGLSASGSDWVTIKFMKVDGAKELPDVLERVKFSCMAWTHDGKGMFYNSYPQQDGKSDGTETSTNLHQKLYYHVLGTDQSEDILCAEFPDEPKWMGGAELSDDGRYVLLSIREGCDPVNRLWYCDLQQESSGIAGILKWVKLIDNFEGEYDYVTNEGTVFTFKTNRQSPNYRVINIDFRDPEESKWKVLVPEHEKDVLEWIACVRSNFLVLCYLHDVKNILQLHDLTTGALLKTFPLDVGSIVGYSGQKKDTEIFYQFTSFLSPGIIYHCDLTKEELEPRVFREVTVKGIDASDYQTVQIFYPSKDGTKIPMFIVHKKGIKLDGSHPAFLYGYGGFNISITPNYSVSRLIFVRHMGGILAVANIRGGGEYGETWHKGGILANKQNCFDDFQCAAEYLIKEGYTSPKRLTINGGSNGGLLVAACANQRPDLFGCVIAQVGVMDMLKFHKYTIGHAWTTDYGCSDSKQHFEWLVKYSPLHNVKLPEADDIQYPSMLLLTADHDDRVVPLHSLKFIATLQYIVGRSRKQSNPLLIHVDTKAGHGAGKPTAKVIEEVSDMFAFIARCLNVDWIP
Protocol: (§1) The rhFAP (fibroblast activation protein), PREP (prolyl endopeptidase), DPP4 (dipeptidylpeptidase IV), DPP8 (dipeptidylpeptidase VIII) and DPP 9 (dipeptidylpeptidase IX) enzymes were expressed before use in the in vitro assays and then purified.
(§2) IC50 measurements were conducted with the Infinite 200 instrument (Tecan Group Ltd.) and evaluated with the Magellan software.
(§3) The data were evaluated by GraFit 7 using a non-linear fit according to the following equation: […]
(§4) where y is the remaining enzyme activity compared to the non-inhibited sample, xis the final inhibitor concentration used in the assay, s is the slope factor and IC50 is the […] inhibitory concentration.
(§5) 8 concentrations of the FAP inhibitors examined were examined, with always the same DMSO concentration. The inhibitors were pre-incubated at 37° C. for 15 min before the N-succinyl-Gly-Pro-AMC substrate was added. The release kinetics of AMC were measured at an excitation wavelength λex=380 nm and emission wavelength λem=465 nm for at least 10 min.

[2] = target: T2, DPP8 (dipeptidylpeptidase VIII) (Homo sapiens, UniProt Q6V1X1); test: DPP8 IC50 measurement with Ala-Pro-pNA substrate; details: Ala-Pro-pNA 300 μM, pH=7.4
T2 construct: made in house
T2 sequence (Q6V1X1 whole entry, species assumed): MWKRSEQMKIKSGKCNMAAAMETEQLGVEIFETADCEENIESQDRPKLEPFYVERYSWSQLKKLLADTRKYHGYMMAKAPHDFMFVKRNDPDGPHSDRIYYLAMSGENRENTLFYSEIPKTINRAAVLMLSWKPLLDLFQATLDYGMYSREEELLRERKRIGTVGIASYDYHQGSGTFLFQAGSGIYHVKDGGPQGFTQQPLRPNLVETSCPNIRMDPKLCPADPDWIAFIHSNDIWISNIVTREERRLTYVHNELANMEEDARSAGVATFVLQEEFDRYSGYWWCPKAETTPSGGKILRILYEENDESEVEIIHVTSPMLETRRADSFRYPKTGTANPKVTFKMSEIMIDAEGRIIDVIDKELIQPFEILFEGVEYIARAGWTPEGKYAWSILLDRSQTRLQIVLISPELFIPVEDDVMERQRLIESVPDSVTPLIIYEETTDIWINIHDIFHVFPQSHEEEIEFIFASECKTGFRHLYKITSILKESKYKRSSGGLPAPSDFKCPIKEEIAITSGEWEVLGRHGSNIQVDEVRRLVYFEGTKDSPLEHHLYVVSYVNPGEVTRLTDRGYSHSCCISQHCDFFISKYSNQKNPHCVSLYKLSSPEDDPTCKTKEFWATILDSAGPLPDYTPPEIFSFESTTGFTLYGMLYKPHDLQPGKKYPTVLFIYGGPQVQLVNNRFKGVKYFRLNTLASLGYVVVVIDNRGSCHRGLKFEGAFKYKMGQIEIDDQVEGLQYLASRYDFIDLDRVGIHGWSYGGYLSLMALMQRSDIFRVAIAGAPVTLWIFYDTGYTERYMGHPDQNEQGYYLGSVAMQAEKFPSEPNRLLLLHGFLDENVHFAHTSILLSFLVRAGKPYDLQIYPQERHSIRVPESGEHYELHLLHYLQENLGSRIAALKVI
Protocol: as §1, §2, §3, §4
At least 8 concentrations of the FAP inhibitors examined were examined, with always the same DMSO concentration. The inhibitors were pre-incubated at 37° C. for 15 min before the Ala-Pro-pNA substrate was added. The release kinetics of pNA were measured at a wavelength of λex=405 nm for at least 10 min.

[3] = target: T3, DPP4 (dipeptidylpeptidase IV) (Homo sapiens, UniProt P27487); test: DPP4 IC50 measurement with Ala-Pro-pNA substrate; details: Ala-Pro-pNA 25 μM, pH=7.4
T3 construct: made in house
T3 sequence (P27487 whole entry, species assumed): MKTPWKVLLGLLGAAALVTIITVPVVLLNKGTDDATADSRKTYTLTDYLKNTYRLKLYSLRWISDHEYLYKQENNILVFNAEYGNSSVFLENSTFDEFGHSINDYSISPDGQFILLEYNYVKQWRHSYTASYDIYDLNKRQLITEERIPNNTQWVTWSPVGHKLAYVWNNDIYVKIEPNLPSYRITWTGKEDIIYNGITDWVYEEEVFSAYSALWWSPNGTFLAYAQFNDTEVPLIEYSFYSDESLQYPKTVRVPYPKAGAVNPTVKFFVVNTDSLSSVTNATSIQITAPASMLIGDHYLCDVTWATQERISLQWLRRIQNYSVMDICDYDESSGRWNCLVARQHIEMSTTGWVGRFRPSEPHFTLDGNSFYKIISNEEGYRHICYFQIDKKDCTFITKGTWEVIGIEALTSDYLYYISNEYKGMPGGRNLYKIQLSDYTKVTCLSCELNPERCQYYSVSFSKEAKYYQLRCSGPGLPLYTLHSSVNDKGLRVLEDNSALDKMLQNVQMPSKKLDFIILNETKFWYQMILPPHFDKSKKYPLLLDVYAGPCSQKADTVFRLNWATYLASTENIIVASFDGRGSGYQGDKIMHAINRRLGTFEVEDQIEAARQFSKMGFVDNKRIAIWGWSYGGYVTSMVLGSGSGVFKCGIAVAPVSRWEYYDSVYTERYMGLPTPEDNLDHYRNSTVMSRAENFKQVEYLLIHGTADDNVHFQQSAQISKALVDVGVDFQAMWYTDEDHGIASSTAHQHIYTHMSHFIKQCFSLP
Protocol: as §1, §2, §3, §4
(§6) At least 8 concentrations of the FAP inhibitors examined were examined, with always the same DMSO concentration. The inhibitors were pre-incubated at 37° C. for 15 min before the Ala-Pro-pNA substrate was added.

[4] = target: T4, rhFAP (fibroblast activation protein) (Homo sapiens, UniProt Q12884); test: FAP IC50 measurement with Z-Gly-Pro-AMC substrate; details: Z-Gly-Pro-AMC 50 μM, pH=8, 15 min pre-incubation at 37° C.
T4 construct: made in house
T4 sequence (Q12884 1-760): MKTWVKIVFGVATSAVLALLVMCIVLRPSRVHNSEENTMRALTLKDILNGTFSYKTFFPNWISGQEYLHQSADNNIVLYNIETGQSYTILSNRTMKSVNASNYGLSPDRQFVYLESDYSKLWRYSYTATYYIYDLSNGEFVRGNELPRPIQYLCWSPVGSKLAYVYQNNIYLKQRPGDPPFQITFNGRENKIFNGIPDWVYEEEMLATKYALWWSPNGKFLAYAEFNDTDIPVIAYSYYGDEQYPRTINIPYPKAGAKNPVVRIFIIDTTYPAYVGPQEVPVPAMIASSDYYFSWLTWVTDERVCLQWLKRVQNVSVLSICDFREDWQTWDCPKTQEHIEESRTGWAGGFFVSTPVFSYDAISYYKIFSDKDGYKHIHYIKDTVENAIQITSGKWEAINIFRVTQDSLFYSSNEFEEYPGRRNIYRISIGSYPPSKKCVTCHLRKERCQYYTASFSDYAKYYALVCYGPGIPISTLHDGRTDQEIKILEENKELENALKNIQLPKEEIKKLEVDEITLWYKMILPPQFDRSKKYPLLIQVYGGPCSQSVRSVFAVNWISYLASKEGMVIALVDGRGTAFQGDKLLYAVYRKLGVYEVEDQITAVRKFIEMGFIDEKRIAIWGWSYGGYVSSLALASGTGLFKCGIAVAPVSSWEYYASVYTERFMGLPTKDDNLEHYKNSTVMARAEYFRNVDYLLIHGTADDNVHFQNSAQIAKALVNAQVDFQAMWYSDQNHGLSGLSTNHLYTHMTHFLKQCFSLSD
Protocol: as §1, §2, §3, §4
as §5, with “Z-Gly-Pro-AMC” for “N-succinyl-Gly-Pro-AMC”, “Δem=465” for “λem=465”

[5] = target: T5, DPP 9 (dipeptidylpeptidase IX) (Homo sapiens, UniProt Q86TI2); test: DPP9 IC50 measurement with Ala-Pro-pNA substrate; details: Ala-Pro-pNA 150 μM, pH=7.4
T5 construct: made in house
T5 sequence (Q86TI2 whole entry, species assumed): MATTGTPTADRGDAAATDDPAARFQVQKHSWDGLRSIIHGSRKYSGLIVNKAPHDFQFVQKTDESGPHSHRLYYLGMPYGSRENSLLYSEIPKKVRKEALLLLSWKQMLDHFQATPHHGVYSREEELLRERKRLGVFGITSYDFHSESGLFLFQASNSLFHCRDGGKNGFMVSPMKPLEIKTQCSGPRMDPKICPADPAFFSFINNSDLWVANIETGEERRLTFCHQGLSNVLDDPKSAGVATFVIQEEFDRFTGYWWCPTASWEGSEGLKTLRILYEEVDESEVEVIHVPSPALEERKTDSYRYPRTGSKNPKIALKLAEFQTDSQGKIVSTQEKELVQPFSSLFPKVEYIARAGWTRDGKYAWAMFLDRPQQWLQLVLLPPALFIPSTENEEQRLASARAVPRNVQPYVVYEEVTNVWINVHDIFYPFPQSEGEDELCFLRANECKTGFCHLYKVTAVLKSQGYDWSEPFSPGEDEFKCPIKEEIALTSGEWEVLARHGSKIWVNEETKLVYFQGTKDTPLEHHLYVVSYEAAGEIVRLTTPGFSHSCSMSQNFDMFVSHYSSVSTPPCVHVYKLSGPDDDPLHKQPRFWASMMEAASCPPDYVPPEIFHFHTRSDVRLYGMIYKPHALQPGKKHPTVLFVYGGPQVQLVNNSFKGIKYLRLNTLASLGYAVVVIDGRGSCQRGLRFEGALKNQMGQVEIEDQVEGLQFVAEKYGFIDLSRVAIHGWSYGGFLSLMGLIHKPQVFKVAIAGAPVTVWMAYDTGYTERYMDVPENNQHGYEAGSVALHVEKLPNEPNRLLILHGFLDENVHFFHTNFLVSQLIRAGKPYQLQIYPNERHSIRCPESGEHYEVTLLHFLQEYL
Protocol: as §1, §2, §3, §4, §6

| Compound | IC50 [1] | IC50 [2] | IC50 [3] | IC50 [4] | IC50 [5] |
| --- | --- | --- | --- | --- | --- |
| CN(CC(=O)O)C1(CCCCC(=O)N[C@@H](CCC(=O)NCCCCOc2ccc3nccc(C(=O)NCC(=O)N4CC(F)(F)C[C@H]4C#N)c3c2)C(=O)NCCCCOc2ccc3nccc(C(=O)NCC(=O)N4CC(F)(F)C[C@H]4C#N)c3c2)CN(CC(=O)O)CCN(CC(=O)O)C1 [DATA^5m.Glu.(FAPi)2, 2,2′-(6-(5-(((S)-1,5-bis((4-((4-((2-((S)-2-cyano-4,4-difluoropyrrolidin-1-yl)-2-oxoethyl)carbamoyl)quinolin-6-yl)oxy)butyl)amino)-1,5-dioxopentan-2-yl)amino)-5-oxopentyl)-6-((carboxymethyl)(methyl)amino)-1,4-diazepane-1,4-diyl)diacetic acid] | 310 ± 60 nM | 2220 ± 400 nM | 1570 ± 60 nM | 0.71 ± 0.05 nM | 770 ± 110 nM |
| N#C[C@@H]1CC(F)(F)CN1C(=O)CNC(=O)c1ccnc2ccccc12 [UAMC1110, (S)—N-(2-(2-cyano-4,4′-difluoropyrrolidin-1-yl)-2-oxoethyl)quinoline-4-carboxamide, reference compound] |  | > 10000 nM |  |  |  |
| N#C[C@@H]1CC(F)(F)CN1C(=O)CNC(=O)c1ccnc2ccc(OCCCCNC(=O)CC[C@H](NC(=O)CN3CCN(CC(=O)O)CCN(CC(=O)O)CCN(CC(=O)O)CC3)C(=O)NCCCCOc3ccc4nccc(C(=O)NCC(=O)N5CC(F)(F)C[C@H]5C#N)c4c3)cc12 [DOTA.Glu.(FAPi)2, 2,2′,2″-(10-(2-(((S)-1,5-bis((4-((4-((2-((S)-2-cyano-4,4-difluoropyrrolidin-1-yl)-2-oxoethyl)carbamoyl)quinolin-6-yl)oxy)butyl)amino)-1,5-dioxopentan-2-yl)amino)-2-oxoethyl)-1,4,7,10-tetraazacyclododecan-1,4,7-triyl)triacetic acid] | 1000 ± 140 nM | 1030 ± 180 nM | 540 ± 60 nM | 0.6 ± 0.04 nM | 950 ± 110 nM |
| N#C[C@@H]1CC(F)(F)CN1C(=O)CNC(=O)c1ccnc2ccc(OCCCCNC(=O)CC[C@H](NC(=O)CCC(C(=O)O)N3CCN(CC(=O)O)CCN(CC(=O)O)CCN(CC(=O)O)CC3)C(=O)NCCCCOc3ccc4nccc(C(=O)NCC(=O)N5CC(F)(F)C[C@H]5C#N)c4c3)cc12 (stereo partly drawn) [DOTAGA.Glu.(FAPi)2, 2,2′,2″-(10-(4-(((S)-1,5-bis((4-((4-((2-((S)-2-cyano-4,4-difluoropyrrolidin-1-yl)-2-oxoethyl)carbamoyl)quinolin-6-yl)oxy)butyl)amino)-1,5-dioxopentan-2-yl)amino)-1-carboxy-4-oxobutyl)-1,4,7,10-tetraazacyclododecan-1,4,7-triyl)triacetic acid] | 590 ± 100 nM | 29 ± 4 nM | 1190 ± 80 nM | 0.26 ± 0.04 nM | 83 ± 1.5 nM |
